From patent US20260294838A1, “ACTIVATION ENHANCER AND FOOD AND DRINK FOR ENHANCING ACTIVATION” (Asahi Group Holdings, Ltd., priority 2023, published 2026)

Legend:
EEG = assay: Reference Example: EEG test in the same manner as in Test Example 4; type: in vivo, human (healthy Japanese men and women, 20 to 39 years old); settings: 10-ppm aqueous solution, same manner as Test Example 4 (EEG), 20 subjects
Protocol: Each subject was instructed to wear an electroencephalograph (model number: HARU-2, manufactured by PGV Co., Ltd.), and to wait for 5 minutes at rest, and then asked to answer a questionnaire for one minute. Subsequently, each subject was instructed to ingest 200 mL of the test beverage within 5 minutes, and thereafter, to wait at rest except for answering the questionnaire for one minute immediately after the ingestion, 15 minutes after the ingestion, 30 minutes after the ingestion and 45 minutes after the ingestion. The EEG were measured from before the ingestion of the test beverage until 45 minutes after the ingestion. The same measurement was carried out one more time. The beverage to be ingested was selected at random for each subject, and each subject was instructed to ingest each beverage once.
In the analysis of EEG, the data obtained during the questionnaires and the ingestion that affect the EEG were excluded from the analysis target. The EEG measured during each waiting time at rest before and after the ingestion were analyzed using the MNE library (ver. 1.3.0) in Python language, and the B/a ratio was calculated from the two-minute data. No exclusion of target data was allowed, and all cases were analyzed as the target.
The test was carried out in the same manner as in Test Example 4, using a 10-ppm aqueous solution of each of: geraniol, which is the isomer of nerol; α-terpineol, which is a degradation product of nerol; and linalool, on 20 healthy Japanese men and women with ages ranging from 20 years old to 39 years old, as the subjects. As a result, the effect of enhancing activation was not observed in any of geraniol, α-terpineol and linalool.

brain blood flow = settings: humans exposed to nerol and geraniol (aroma components of lemongrass extract); cited from earlier work
rats = settings: cited from earlier work

| SMILES | effect of enhancing activation (EEG) | amount of brain blood flow (brain blood flow) | acceptable daily intake (ADI) per person (rats; calculated, assuming an adult with a body weight of 50 kg) | acceptable daily intake (ADI) (rats; calculated) | no-observed adverse effect level (NOAEL), lowest value (rats; repeated dose toxicity study on rats) |
| --- | --- | --- | --- | --- | --- |
| C=CC(C)(O)CCC=C(C)C (centres unmarked) [linalool] | not observed | – | – | – | – |
| CC(C)=CCC/C(C)=C/CO [geraniol] | not observed | increased significantly | – | – | – |
| CC(C)=CCC/C(C)=C\CO [nerol, (Z)-3,7-dimethyl-2,6-octadien-1-ol] | – | increased significantly | 95.5 mg/person/day | 1.91 mg/kg/day | 191 mg/kg/day |
| CC1=CCC(C(C)(C)O)CC1 (stereo not drawn) [α-terpineol] | not observed | – | – | – | – |
